Measured values taken from patent EP3970494A1 (priority 2020, dated 2022).

Experiments:
Assay in all cases: microbe, parasite or virus in culture
Format in all cases: cell-based
Phytophthora infestans = conditions: 168 h, read-out: Fungal growth at 31 ppm (%) PHYTIN
Fusarium culmorum = conditions: 168 h
Septoria tritici = conditions: Zymoseptoria tritici, 168 h

CNC(=O)/C(=N/OC)c1cccc(C)c1CO/N=C(\C)c1cc(-c2ccccc2)on1 [Example 23]
activity at 31 ppm (Phytophthora infestans): 1%
activity at 31 ppm (Fusarium culmorum): 5%

CNC(=O)/C(=N/OC)c1cccc(C)c1CO/N=C(\C)c1nc(C(F)(F)F)cs1 [Example 95]
activity at 31 ppm (Fusarium culmorum): 17%

CO/N=C(/C(=O)OC)c1cccc(C)c1CO/N=C(\C)c1cc(-c2ccc(Cl)cc2)on1 [Example 18]
activity at 31 ppm (Fusarium culmorum): 16%

CO/N=C(/C(=O)OC)c1cccc(C)c1CO/N=C(\C)c1cncc(F)c1 [Example 75]
activity at 31 ppm (Phytophthora infestans): 0%

CNC(=O)/C(=N/OC)c1cccc(C)c1CO/N=C(\C)c1cc(C#N)cc(Cl)n1 [Example 63]
activity at 31 ppm (Phytophthora infestans): 0%
activity at 31 ppm (Fusarium culmorum): 18%

CNC(=O)/C(=N/OC)c1cccc(C)c1CO/N=C(\C)c1cccc(F)n1 [Example 107]
activity at 31 ppm (Phytophthora infestans): 0%
activity at 31 ppm (Fusarium culmorum): 16%

CNC(=O)/C(=N/OC)c1cccc(C)c1CO/N=C(\C)c1cc(C(F)(F)F)c(C#N)cn1 [Example 99]
activity at 31 ppm (Phytophthora infestans): 20%

CNC(=O)/C(=N/OC)c1cccc(C)c1CO/N=C(\C)c1cncc(C(F)(F)F)n1 [Example 89, (2E)-2-Methoxyimino-N-methyl-2-[3-methyl-2-[[(E)-1-[6-(trifluoromethyl)pyrazin-2-yl]ethylideneamino]oxymethyl]phenyl]acetamide]
activity at 31 ppm (Phytophthora infestans): 0%
activity at 31 ppm (Fusarium culmorum): 13%

CO/N=C(/C(=O)OC)c1cccc(C)c1CO/N=C(\C)c1cccc(OC)n1 [Example 6]
activity at 31 ppm (Septoria tritici): 7%

CNC(=O)/C(=N/OC)c1cccc(C)c1CO/N=C(\C)c1cncc(C(F)(F)F)c1 [Example 85, (2E)-2-methoxyimino-N-methyl-2-[3-methyl-2-[[(E)-1-[5-(trifluoromethyl)-3-pyridyl]-ethylideneamino]oxymethyl]phenyl]acetamide]
activity at 31 ppm (Phytophthora infestans): 0%
activity at 31 ppm (Fusarium culmorum): 16%

CNC(=O)/C(=N/OC)c1cccc(C)c1CO/N=C(\C)c1ccc(Cl)nn1 [Example 92]
activity at 31 ppm (Phytophthora infestans): 0%
activity at 31 ppm (Fusarium culmorum): 17%

CNC(=O)/C(=N/OC)c1cccc(C)c1CO/N=C(\C)c1cc(N2CC(F)(F)C2)ccn1 [Example 90]
activity at 31 ppm (Phytophthora infestans): 0%

CO/N=C(/C(=O)OC)c1cccc(C)c1CO/N=C(\C)c1cscn1 [Example 126]
activity at 31 ppm (Phytophthora infestans): 0%

CO/N=C(/C(=O)OC)c1cccc(C)c1CO/N=C(\C)c1ccccn1 [Example 129]
activity at 31 ppm (Phytophthora infestans): 0%

CO/N=C(/C(=O)OC)c1cccc(C)c1CO/N=C(\C)c1cc(-c2ccc(F)cc2)sn1 [Example 11, Methyl (2E)-2-[2-[[(E)-1-[5-(4-fluorophenyl)isothiazol-3-yl]ethylideneamino]oxymethyl]-3-methyl-phenyl]-2-methoxyimino-acetate]
activity at 31 ppm (Septoria tritici): 10%

C=Cc1cnc(/C(C)=N/OCc2c(C)cccc2/C(=N\OC)C(=O)NC)s1 [Example 144]
activity at 31 ppm (Fusarium culmorum): 14%

CO/N=C(/C(=O)OC)c1cccc(C)c1CO/N=C(\C)c1cn(C)nc1C(F)F [Example 49]
activity at 31 ppm (Phytophthora infestans): 0%
activity at 31 ppm (Fusarium culmorum): 17%

CO/N=C(/C(=O)OC)c1cccc(C)c1CO/N=C(\C)c1cc(-c2ccccc2)on1 [Example 21]
activity at 31 ppm (Phytophthora infestans): 5%

C#Cc1cnc(/C(C)=N/OCc2c(C)cccc2/C(=N\OC)C(=O)NC)s1 [Example 61]
activity at 31 ppm (Phytophthora infestans): 19%
activity at 31 ppm (Fusarium culmorum): 11%

CO/N=C(/C(=O)OC)c1cccc(C)c1CO/N=C(\C)c1cc(C(F)(F)F)cc(Cl)n1 [Example 42]
activity at 31 ppm (Fusarium culmorum): 10%

CNC(=O)/C(=N/OC)c1cccc(C)c1CO/N=C(/c1nccs1)C(F)F [Example 154]
activity at 31 ppm (Fusarium culmorum): 14%

CNC(=O)/C(=N/OC)c1cccc(C)c1CO/N=C(\C)c1csc(C(F)(F)F)n1 [Example 115]
activity at 31 ppm (Phytophthora infestans): 0%
activity at 31 ppm (Fusarium culmorum): 13%

CO/N=C(/C(=O)OC)c1cccc(C)c1CO/N=C(\C)c1ccc(C#CC2CC2)cn1 [Example 111]
activity at 31 ppm (Phytophthora infestans): 15%

CNC(=O)/C(=N/OC)c1cccc(C)c1CO/N=C(\C)c1cn(C)nc1C(F)(F)F [Example 52]
activity at 31 ppm (Fusarium culmorum): 12%

CNC(=O)/C(=N/OC)c1cccc(C)c1CO/N=C(\C)c1cc(C(F)F)nc(C)n1 [Example 62]
activity at 31 ppm (Phytophthora infestans): 0%
activity at 31 ppm (Fusarium culmorum): 11%

CNC(=O)/C(=N/OC)c1cccc(C)c1CO/N=C(\C)c1cc(-c2ccc(F)cc2)sn1 [Example 12, (2E)-2-[2-[[(E)-1-[5-(4-Fluorophenyl)isothiazol-3-yl]ethylideneamino]oxymethyl]-3-methyl-phenyl]-2-methoxyimino-N-methyl-acetamide]
activity at 31 ppm (Phytophthora infestans): 2%
activity at 31 ppm (Fusarium culmorum): 11%

CO/N=C(/C(=O)OC)c1cccc(C)c1CO/N=C(\C)c1cc(-c2ccc(F)cc2)on1 [Example 14]
activity at 31 ppm (Fusarium culmorum): 20%

CNC(=O)/C(=N/OC)c1cccc(C)c1CO/N=C(\C)c1cn(C)nc1C(F)F [Example 50]
activity at 31 ppm (Phytophthora infestans): 0%
activity at 31 ppm (Fusarium culmorum): 18%

CO/N=C(/C(=O)OC)c1cccc(C)c1CO/N=C(\C)c1cnccc1C(F)(F)F [Example 155]
activity at 31 ppm (Fusarium culmorum): 18%

CNC(=O)/C(=N/OC)c1cccc(C)c1CO/N=C(\C)c1ccc(C#CC2CC2)nc1 [Example 69]
activity at 31 ppm (Phytophthora infestans): 0%
activity at 31 ppm (Fusarium culmorum): 11%

CNC(=O)/C(=N/OC)c1cccc(C)c1CO/N=C(\C)c1ncc(-c2ccc(F)cc2)s1 [Example 78, (2E)-2-[2-[[(E)-1-[5-(4-fluorophenyl)thiazol-2-yl]ethylideneamino]oxymethyl]-3-methyl-phenyl]-2-methoxyimino-N-methyl-acetamide]
activity at 31 ppm (Phytophthora infestans): 3%
activity at 31 ppm (Fusarium culmorum): 16%

CNC(=O)/C(=N/OC)c1cccc(C)c1CO/N=C(\C)c1cncc(F)c1 [Example 76]
activity at 31 ppm (Phytophthora infestans): 0%
activity at 31 ppm (Fusarium culmorum): 16%

CNC(=O)/C(=N/OC)c1cccc(C)c1CO/N=C(\C)c1ccc(C#CC2CC2)cn1 [Example 112]
activity at 31 ppm (Phytophthora infestans): 2%
activity at 31 ppm (Fusarium culmorum): 21%

CO/N=C(\C)c1cccc(/C(C)=N/OCc2c(C)cccc2/C(=N\OC)C(=O)OC)n1 [Example 31]
activity at 31 ppm (Septoria tritici): 13%

CNC(=O)/C(=N/OC)c1cccc(C)c1CO/N=C(\C)c1ccnc(C(F)(F)F)c1 [Example 48]
activity at 31 ppm (Phytophthora infestans): 1%
activity at 31 ppm (Fusarium culmorum): 17%

CNC(=O)/C(=N/OC)c1cccc(C)c1CO/N=C(\C)c1cccc(C)n1 [Example 81]
activity at 31 ppm (Phytophthora infestans): 0%
activity at 31 ppm (Fusarium culmorum): 9%

CO/N=C(/C(=O)OC)c1cccc(C)c1CO/N=C(\C)c1ccncc1 [Example 130]
activity at 31 ppm (Phytophthora infestans): 0%
activity at 31 ppm (Fusarium culmorum): 17%

CNC(=O)/C(=N/OC)c1cccc(C)c1CO/N=C(\C)c1cscn1 [Example 127]
activity at 31 ppm (Phytophthora infestans): 0%

CO/N=C(/C(=O)OC)c1cccc(C)c1CO/N=C(\C)c1ccc(Cl)c(C(F)(F)F)c1 [Example 82]
activity at 31 ppm (Phytophthora infestans): 3%
activity at 31 ppm (Fusarium culmorum): 17%

CO/N=C(/C(=O)OC)c1cccc(C)c1CO/N=C(\C)c1ncc(C(F)(F)F)s1 [Example 123, Methyl (2E)-2-methoxyimino-2-[3-methyl-2-[[(E)-1-[5-(trifluoromethyl)thiazol-2-yl]-ethylideneamino]oxymethyl]phenyl]acetate]
activity at 31 ppm (Fusarium culmorum): 17%

CO/N=C(/C(=O)OC)c1cccc(C)c1CO/N=C(\C)c1cc(C(F)(F)F)nn1C [Example 117, Methyl (2E)-2-methoxyimino-2-[3-methyl-2-[[(E)-1-[2-methyl-5-(trifluoromethyl)pyrazol-3-yl]ethylideneamino]oxymethyl]phenyl]acetate]
activity at 31 ppm (Fusarium culmorum): 18%

CNC(=O)/C(=N/OC)c1cccc(C)c1CO/N=C(\C)c1cc(-c2cccc(C(F)(F)F)c2)sn1 [Example 39]
activity at 31 ppm (Phytophthora infestans): 8%
activity at 31 ppm (Fusarium culmorum): 14%

CNC(=O)/C(=N/OC)c1cccc(C)c1CO/N=C(\C)c1cc(C(F)(F)F)cc(C#N)n1 [Example 86]
activity at 31 ppm (Phytophthora infestans): 0%
activity at 31 ppm (Fusarium culmorum): 16%

CNC(=O)/C(=N/OC)c1cccc(C)c1CO/N=C(\C)c1ncccc1F [Example 77]
activity at 31 ppm (Phytophthora infestans): 0%
activity at 31 ppm (Fusarium culmorum): 11%

CNC(=O)/C(=N/OC)c1cccc(C)c1CO/N=C(\C)c1cnc(C(F)(F)F)cn1 [Example 97, (2E)-2-methoxyimino-N-methyl-2-[3-methyl-2-[[(E)-1-[5-(trifluoromethyl)pyrazin-2-yl]ethylideneamino]oxymethyl]phenyl]acetamide]
activity at 31 ppm (Phytophthora infestans): 0%
activity at 31 ppm (Fusarium culmorum): 17%

CNC(=O)/C(=N/OC)c1cccc(C)c1CO/N=C(\C)c1cccnc1 [Example 135]
activity at 31 ppm (Phytophthora infestans): 0%
activity at 31 ppm (Fusarium culmorum): 19%

CO/N=C(/C(=O)OC)c1cccc(C)c1CO/N=C(\C)c1cc(-c2ccccc2)sn1 [Example 36]
activity at 31 ppm (Phytophthora infestans): 10%

CNC(=O)/C(=N/OC)c1cccc(C)c1CO/N=C(\C)c1ncc(C(F)(F)F)s1 [Example 53, (2E)-2-Methoxyimino-N-methyl-2-[3-methyl-2-[[(E)-1-[5-(trifluoromethyl)thiazol-2-yl]ethylideneamino]oxymethyl]phenyl]acetamide]
activity at 31 ppm (Fusarium culmorum): 21%

CNC(=O)/C(=N/OC)c1cccc(C)c1CO/N=C(\C)c1cc(-c2ccc(F)cc2)on1 [Example 15]
activity at 31 ppm (Phytophthora infestans): 0%
activity at 31 ppm (Fusarium culmorum): 20%

CNC(=O)/C(=N/OC)c1cccc(C)c1CO/N=C(\C)c1cc(-c2cccc(C(F)(F)F)c2)on1 [Example 22, (2E)-2-Methoxyimino-N-methyl-2-[3-methyl-2-[[(E)-1-[5-[3-(trifluoromethyl)phenyl]-isoxazol-3-yl]ethylideneamino]oxymethyl]phenyl]acetamide]
activity at 31 ppm (Phytophthora infestans): 17%

CNC(=O)/C(=N/OC)c1cccc(C)c1CO/N=C(\C)c1cc(C(F)(F)F)cc(C)n1 [Example 80]
activity at 31 ppm (Phytophthora infestans): 0%
activity at 31 ppm (Fusarium culmorum): 16%

CO/N=C(/C(=O)OC)c1cccc(C)c1CO/N=C(\C)c1ncc(-c2ccc(F)cc2)s1 [Example 79, Methyl (2E)-2-[2-[[(E)-1-[5-(4-fluorophenyl)thiazol-2-yl]ethylideneamino]oxymethyl]-3-methyl-phenyl]-2-methoxyimino-acetate]
activity at 31 ppm (Phytophthora infestans): 17%
activity at 31 ppm (Fusarium culmorum): 13%

CNC(=O)/C(=N/OC)c1cccc(C)c1CO/N=C(\C)c1ccncc1 [Example 134]
activity at 31 ppm (Phytophthora infestans): 0%
activity at 31 ppm (Fusarium culmorum): 20%

CNC(=O)/C(=N/OC)c1cccc(C)c1CO/N=C(/c1nccs1)C1CC1 [Example 110]
activity at 31 ppm (Phytophthora infestans): 0%
